Results: article PMC12040169 (PLOS Biology, 2025)

Assay: in vitro
Details: human, hela cells, % viability

Compound	viability at 28.5 h, 10 µM [%]	viability at 28.5 h, 10 µM (bulk resorufin, single well) [%]
COc1cccc(NC(=O)CN(c2ccccc2)S(=O)(=O)c2ccc(Cl)cc2)c1 [CBK265366]	102	–
Oc1ccc(Br)cc1C(c1c(O)nc(S)nc1O)c1c(O)nc(S)nc1O [CBK265367]	–	103
COc1ccc(CCN2C(=O)NC(=O)/C(=C\c3c(C)[nH]c4ccccc34)C2=O)cc1OC [CBK265368]	–	81.6
CSc1nc(O)c(C(c2cccc([N+](=O)[O-])c2)c2c(O)nc(SC)nc2O)c(O)n1 [CBK265370]	80.5	–
Cc1cc(NS(=O)(=O)c2ccc(NC(=O)c3ccc(Br)cc3)cc2)no1 [CBK265371]	95.6	–
COc1ccc(CCNC(=O)/C=C/C(=O)O)cc1OC [CBK265373]	103	–
c1ccc(-c2c(-c3ccccc3)n(Cc3ccco3)c3ncn4nc(-c5cccnc5)nc4c23)cc1 [CBK265374]	100	–
O=C(O)c1ccc(N(Cc2ccccc2)S(=O)(=O)c2ccccc2)cc1 [CBK265375N]	92.8	–
O=C(O)C(Cc1c[nH]c2ccccc12)N1C(=O)C2C3c4ccccc4C(c4ccccc43)C2C1=O (stereo not drawn) [CBK265377]	91.4	–
Cc1cc(C)n2c(SCC(=O)c3ccccc3)nnc2n1 [CBK265378]	84.3	–
O=C(NCCN1CCOCC1)c1cc(-c2ccc(Cl)cc2Cl)nc2ccccc12 [CBK265379]	113	–
NC(=O)c1c(NC(=O)COc2ccc3ccccc3c2)sc2c1CCCCC2 [CBK265380]	112	–
CCC(=O)N(Cc1cc2cc(C)ccc2nc1O)c1ccc(C)c(C)c1 [CBK265381]	107	–
CC(NC(=O)C1C2C=CC(C2)C1C(=O)O)c1ccccc1 (stereo not drawn) [CBK265384]	109	–
O=C1NC(=O)N(c2ccc(O)cc2)C(=O)/C1=C/c1cc(Cl)c(OCc2ccccc2)c(Cl)c1 [CBK265385]	–	78.1
Cc1c(-c2ccc(Cl)cc2Cl)nc2ccccc2c1C(=O)NCc1ccc(S(N)(=O)=O)cc1 [CBK265387]	101	–
O=C(O)c1cc(-c2cc(Cl)ccc2Cl)nc2ccccc12 [CBK265391]	96.1	–
CC(Oc1ccc(Cl)cc1Cl)C(=O)Nc1sc2c(c1C(N)=O)CCCCCC2 (stereo not drawn) [CBK265394]	85.8	–
CC(=O)Nc1ccc(NC(=O)CCC(=O)O)cc1C [CBK265395]	95.3	–
CCOC(=O)c1ccc(N2C(=O)CC(N3CCN(c4cccc(OC)c4)CC3)C2=O)cc1 (stereo not drawn) [CBK265396]	101	–

Compound	viability at 28.5 h, 10 µM [%]	viability at 28.5 h, 10 µM (bulk resorufin, single well) [%]
CC1Cc2ccccc2N1C(=O)CSc1nnc2sc3ccccc3n12 (stereo not drawn) [CBK265398]	94	–
COC(=O)c1cc(NC(=O)c2cc(-c3ccc(C)o3)nc3ccccc23)cc(C(=O)OC)c1 [CBK265400]	86.3	–
Cc1cc(NC(=O)C(=O)NCCN2CCN(S(C)(=O)=O)CC2)ccc1Br [CBK265401]	85.4	–
Cc1ccc(-c2cc(C(=O)NCc3cccnc3)c3ccccc3n2)cc1C [CBK265402]	97.5	–
O=C(O)C1C2C=CC(C2)C1C(=O)NCc1ccncc1 (stereo not drawn) [CBK265403]	102	–
CCCCC(CC)CN1CNC(=S)NC1 (stereo not drawn) [CBK265404]	105	–
COC(=O)c1ccc(N2C(=O)NC(=O)/C(=C\c3ccc(OCC(=O)O)cc3)C2=O)cc1 [CBK265407]	–	85.2
O=c1cc2oc3cc(O)c(O)cc3c(-c3ccc(OCc4cccc([N+](=O)[O-])c4)cc3)c-2cc1O [CBK265408]	75.3	–
O=C(CCc1ccccc1)Nc1cccc(N2C(=O)C3C4c5ccccc5C(c5ccccc54)C3C2=O)c1 (stereo not drawn) [CBK265409]	91.1	–
O=C(c1ccccc1)C(Sc1nnc2sc3ccccc3n12)c1ccccc1 (stereo not drawn) [CBK265416]	84.2	–
COc1cc(/C=C2\C(=O)NC(=O)N(c3ccc([N+](=O)[O-])cc3)C2=O)ccc1OCC(=O)O [CBK265418]	–	100
O=C(O)COc1ccccc1/C=C1\C(=O)NC(=O)N(c2ccc(OCc3ccccc3)cc2)C1=O [CBK265419]	–	114
O=C(CN1CCCCC1)Nc1ccc(NC(=O)CN2CCCCC2)cc1 [CBK265421]	86.3	–
CCC1CCc2c(sc(NC(=O)C3C4CCC(C4=C(C)C)C3C(=O)O)c2C(=O)OC)C1 (stereo not drawn) [CBK265424]	102	–
Cc1ccc(N(Cc2cc3cccc(C)c3nc2O)C(=O)c2cccc([N+](=O)[O-])c2)cc1 [CBK265426]	98.2	–
CCOc1ccc(N(Cc2cc3cc(C)ccc3nc2O)C(=O)c2ccccc2OC)cc1 [CBK265427]	103	–
CC1=C(C)CC(C(=O)Nc2sc3c(c2C(=O)OC(C)C)CCCC3)C(C(=O)O)C1 (stereo not drawn) [CBK265428]	87	–
Cc1noc(NS(=O)(=O)c2ccc(NC(=O)/C=C/c3ccc(C(C)C)cc3)cc2)c1C [CBK265430]	89.2	–
COc1cc(/C=C2\C(=O)NC(=O)N(c3ccc([N+](=O)[O-])cc3)C2=O)cc(Cl)c1OCC(=O)O [CBK265431]	–	98.3
Cc1ccc(S(=O)(=O)N2CCN(c3ccc([N+](=O)[O-])c(NCCN4CCOCC4)c3)CC2)cc1 [CBK265432]	102	–

Compound	viability at 28.5 h, 10 µM [%]	viability at 28.5 h, 10 µM (bulk resorufin, single well) [%]
CN1CCN(C2CC(=O)N(c3ccc(Oc4ccccc4)cc3)C2=O)CC1 (stereo not drawn) [CBK265434]	103	–
O=C(CCCc1ccccc1)Nc1scc2c(=O)oc3ccccc3c12 [CBK265435]	90.1	–
O=C(O)COc1ccccc1/C=C1\C(=O)NC(=O)N(c2ccc(O)cc2)C1=O [CBK265436]	–	85.2
COC(=O)COc1ccc(C(NC(=O)c2ccccc2)C(Cl)(Cl)Cl)cc1 (stereo not drawn) [CBK265437]	97.8	–
CCOC(=O)c1c(NC(=O)C2C3CCC(C3=C(C)C)C2C(=O)O)sc2c1CCCCC2 (stereo not drawn) [CBK265439]	106	–
O=C(C1CCCN(C2CCN(Cc3ccccc3)CC2)C1)N1CCN(c2ccccc2)CC1 (stereo not drawn) [CBK265440G]	113	–
Cc1cc(Cl)ccc1OC(C)C(=O)NCc1ccccn1 (stereo not drawn) [CBK265441]	98.8	–
Cc1ccc(N(Cc2cc3ccccc3nc2O)C(=O)c2cccnc2)cc1 [CBK265442]	85.5	–
CC(CNC(=O)C(C)(C)C)NC(=O)C(C)(C)C (stereo not drawn) [CBK265443]	93.6	–
O=C(CCCc1ccccc1)Nc1ccc(F)cc1[N+](=O)[O-] [CBK265446]	99.9	–
COc1ccc(NC(=O)CCC(=O)O)c(OC)c1 [CBK265451]	104	–
COC(=O)c1c(NC(=O)COc2ccccc2Cl)sc2c1CCC(c1ccccc1)C2 (stereo not drawn) [CBK265456]	90.3	–
O=C(NCCCn1ccnc1)Nc1cccc(Cl)c1 [CBK265458]	93.9	–
O=C(O)C1CC=CCC1C(=O)NCCCCc1ccccc1 (stereo not drawn) [CBK265460]	98.7	–
Cc1ccc(S(=O)(=O)NCCN2CCN(S(=O)(=O)c3ccc(C)cc3)CC2)cc1 [CBK265461]	115	–
O=C(O)CCC(=O)NCCCc1ccccc1 [CBK265465]	86.7	–
CC1CCc2c(sc(NC(=O)c3cnccn3)c2C(N)=O)C1 (stereo not drawn) [CBK265466]	90.7	–
CC1CCN(CCN2CCn3c2nc2ccccc23)CC1 [CBK265467B]	80	–
CCOC(=O)c1c(NC(=O)C2CCCCC2C(=O)O)sc(C)c1C (stereo not drawn) [CBK265469]	99.2	–
O=C(NCCCN1CCOCC1)c1cc(Cl)ccc1[N+](=O)[O-] [CBK265470]	108	–
